Laboratory results from patent US20190315775A1, “MODIFIED […] AND PHARMACEUTICAL COMPOSITION HAVING SAME AS ACTIVE INGREDIENT” (KEIO UNIVERSITY, priority 2016, published 2019).

How the values were obtained:
[1] = Water solubility of drugs (saturation concentration by HPLC); assay type: physicochemical; settings: 100 mM Tris-HCl (pH 7.5); for Water solubility: 25° C., saturation concentration; for Water solubility, relative ratio (numerals in parentheses): relative to TC11
[2] = system: KMS11 high-risk MM cell line; experiment: MTT cell proliferation inhibition, KMS11; assay type: cell-based; settings: Homo sapiens, KMS-11, KMS11, t(4;14), del17, 48 hours, read-out: IC50, cell proliferation inhibitory activity, KMS11
Description: (§1) For examination of cell proliferation inhibitory activity, high-risk MM cell lines (KMM1, KMS11, KMS21, KMS26, KMS28, KMS34) established by Takemi Otsuki et al., of Kawasaki Medical School were used (Otsuki, T. et al., Int. J. Oncol., 15: 1205-1212, 1999). […] The genetic abnormality of these cell types, and in particular deletion of p53 gene were examined by FISH method (Chang, H. Blood, 105: 358-360, 2005) (WO2010/061862A1). […] These high-risk MM cell lines were treated with drugs such as TC11, HOEtO-TC11, PEG11(E)-TC11, and PEG11(O)-TC11 at arbitrary concentrations. […] Specifically, each high-risk MM cell line was prepared at a concentration of 2×10^5 cells/ml, and then seeded in an amount of 50 μl (1×10^4 cells) per well. After 24 hours, drugs such as TC11, HOEtO-TC11, PEG11(E)-TC11, and PEG11(O)-TC11 having arbitrary concentrations were added. At 48 hours after addition of each drug, 10 μL each of an MTT labeling reagent in Cell Proliferation Kit I [MTT] (Roche Diagnostics, Basel, Switzerland) was added. After 4 hours of treatment at 37° C., 100 μL each of solution buffer was added and then left to stand overnight at 37° C. Absorbance was measured using a microplate reader Infinit™ M1000 (Tecan, Maennedorf, Switzerland) at a wavelength of 570 nm. Cell viability was found from an absorbance ratio using absorbance at 0 μM designated as 100%. IC50 was calculated from a semi-logarithmic chart using Microsoft (registered trademark) Excel.

[3] = system: KMM1 high-risk MM cell line; experiment: MTT cell proliferation inhibition, KMM1; assay type: cell-based; settings: Homo sapiens, KMM-1, KMM1, t(6;14), t(8;14), del17, 48 hours, read-out: IC50, cell proliferation inhibitory activity, KMM1
Description: as §1

cereblon (CRBN) [4] = target: T1, cereblon (CRBN) (Homo sapiens, UniProt Q96SW2); experiment: Surface plasmon resonance biosensor (BIACORE 3000) interaction with cereblon; assay type: binding; settings: measured at 1 μM, 2 μM and 10 μM, FIG. 9C
T1 construct: recombinant full-length CRBN prepared by the above method was reacted with the beads; T7 tag (N); FLAG tag (C); made in house; host or cells: 293T cells (pcDNA3.3 vector), RIPA extract purified on Ni Sepharose excel

[5] = system: KMS26 high-risk MM cell line; experiment: MTT cell proliferation inhibition, KMS26; assay type: cell-based; settings: Homo sapiens, KMS-26, KMS26, t(4;14), t(4;16), del17, 48 hours, read-out: IC50, cell proliferation inhibitory activity, KMS26
Description: as §1

KMS11 xenograft = experiment: Antitumor effect on KMS11 cancer-bearing mice (Example 17); assay type: in vivo, ICR/SCID mice
Description: KMS11 was administered to 5-week-old ICR/SCID mice at 2×10^7 cells/mouse via hypodermic injection. Tumor volumes were measured over time, and the day on which the tumor volume exceeded 50 mm^3 was designated as Day 1 and observation was performed for 9 days. […] On the day of administration, these solutions were diluted 10-fold with physiological saline while stirring with Vortex, and then intraperitoneally administered. Tumor volume was calculated by the following formula.
Tumor volume (mm^3)=major axis×minor axis×minor axis×π/6=major axis×minor axis×minor axis×0.5236

MUM24 MM cell line = experiment: MTT cell proliferation inhibition, MUM24; assay type: cell-based; settings: Homo sapiens, MUM24, t(4;14), del13, del17, 48 hours, read-out: IC50, cell proliferation inhibitory activity, MUM24
high-risk MM cell lines [6] = experiment: MTT cell proliferation inhibition, panel of high-risk MM cell lines; assay type: cell-based; settings: Homo sapiens, range over the cell lines of Table 2, 48 hours
Description: as §1

[7] = system: KMS34 high-risk MM cell line; experiment: MTT cell proliferation inhibition, KMS34; assay type: cell-based; settings: Homo sapiens, KMS-34, KMS34, t(4;14), del17, 48 hours, read-out: IC50, cell proliferation inhibitory activity, KMS34
Description: as §1

[8] = system: KMS21 high-risk MM cell line; experiment: MTT cell proliferation inhibition, KMS21; assay type: cell-based; settings: Homo sapiens, KMS21, t(11;14), 48 hours, read-out: IC50, cell proliferation inhibitory activity, KMS21
Description: as §1
Moreover, the concentration dependency of the in vitro cell proliferation inhibitory activity of TC11, and its derivatives, PEG11(E)-TC11 and HOEtO-TC11 against high-risk MM cell line (KMS21) was examined in detail (FIG. 4). […] Such a phenomenon was similarly observed for other high-risk MM cell lines, KMS11, KMS34, and MUM24.

cereblon (CRBN) [9] = target: T1, cereblon (CRBN); experiment: Pull-down assay of cereblon with biotinylated drug on streptavidin beads; assay type: binding; settings: 30° C., 30 minutes, FIG. 9A
Description: CRBN was prepared as follows. A T7 tag was added 5′-upstream of, and a FLAG tag and a histidine tag were added 3′-downstream of a full-length CRBN gene. The gene was introduced into a pcDNA3.3 expression vector (Invitrogen), thereby constructing a plasmid DNA. Next, a Kozak sequence was added 5′-upstream of the T7 tag using a KOD-Plus-Mutagenesis Kit (TOYOBO). The plasmid DNA was transfected into 293T cells. After 4 days of culture at 37° C. with 5% CO2, cells were extracted with a RIPA buffer (Thermo), and then the extracted fraction was purified using Ni Sepharose excel (GE Healthcare). Since the purified fraction contained imidazole, TBS (Nacalai Tesque) was subjected to buffer exchange. […] Centrifugation was performed to separate the resultants into a flow-through (F) fraction and a bead (B) fraction. Protein bands corresponding to CRBN were separated by SDS-PAGE, and then detected by Western blot. […] Note that “I” indicates “Input fraction”.

[10] = system: KMS34 high-risk MM cell line; experiment: WST-1 cell proliferation inhibition (Example 8), KMS34; assay type: cell-based; settings: Homo sapiens, KMS-34, WST-1, 48 hours, read-out: IC50, cell proliferation inhibitory activity, KMS34
Description: (§2) Similar to Example 7, high-risk MM cell lines were treated with drugs, TC11 and PEG5(E)-TC11 at arbitrary concentrations. […] Specifically, each high-risk MM cell line was prepared at 5×10^5 cells/ml, and then seeded at 50 μl per well (2.5×10^4 cells). Drugs such as TC11, and PEG5(E)-TC11 were added to wells at arbitrary concentrations. WST-1 reagent was added at 48 hours after addition of drugs. After 1 hour of reaction at 37° C. in a CO2 incubator, absorbance was measured at a wavelength of 450 nm using a microplate reader. Cell viability was found from an absorbance ratio using absorbance at 0 μM designated as 100%. IC50 was calculated from a semi-logarithmic chart using Microsoft (registered trademark) Excel.

[11] = system: KMM1 high-risk MM cell line; experiment: WST-1 cell proliferation inhibition (Example 8), KMM1; assay type: cell-based; settings: Homo sapiens, KMM-1, WST-1, 48 hours, read-out: IC50, cell proliferation inhibitory activity, KMM1
Description: as §2

[12] = system: KMS21 high-risk MM cell line; experiment: WST-1 cell proliferation inhibition (Example 8), KMS21; assay type: cell-based; settings: Homo sapiens, WST-1, 48 hours, read-out: IC50, cell proliferation inhibitory activity, KMS21
Description: as §2

[13] = system: KMS11 high-risk MM cell line; experiment: WST-1 cell proliferation inhibition (Example 8), KMS11; assay type: cell-based; settings: Homo sapiens, KMS-11, WST-1, 48 hours, read-out: IC50, cell proliferation inhibitory activity, KMS11
Description: as §2

high-risk MM cell lines [14] = experiment: WST-1 cell proliferation inhibition (Example 8), panel of high-risk MM cell lines; assay type: cell-based; settings: Homo sapiens; range over the cell lines of Table 3; WST-1, 48 hours
Description: as §2

T1 sequence (Q96SW2 whole entry): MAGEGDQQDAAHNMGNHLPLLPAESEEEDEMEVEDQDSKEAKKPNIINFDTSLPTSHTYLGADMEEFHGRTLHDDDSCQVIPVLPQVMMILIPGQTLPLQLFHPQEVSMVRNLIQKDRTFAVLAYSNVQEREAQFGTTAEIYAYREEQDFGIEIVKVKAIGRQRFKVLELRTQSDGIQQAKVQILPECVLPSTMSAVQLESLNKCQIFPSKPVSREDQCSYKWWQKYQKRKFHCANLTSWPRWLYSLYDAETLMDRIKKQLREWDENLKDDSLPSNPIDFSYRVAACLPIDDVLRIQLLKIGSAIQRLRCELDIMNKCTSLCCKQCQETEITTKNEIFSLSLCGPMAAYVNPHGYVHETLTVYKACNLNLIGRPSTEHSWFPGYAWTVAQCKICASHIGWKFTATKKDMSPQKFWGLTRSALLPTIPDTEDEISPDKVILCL

In the case of `CC(C)c1cccc(C(C)C)c1N1C(=O)c2cc(N)c(OCCO[C@@H]3OC(CO)[C@@H](O)[C@H](O)C3O)cc2C1=O` (stereo partly drawn) [Glu-TC11], the Water solubility [1] is reported as 0.082 g/100 ml and the “Water solubility, relative ratio (numerals in parentheses)” value (“Water solubility, relative ratio” for short) [1] is reported as 41 ×.

`CC(C)c1cccc(C(C)C)c1N1C(=O)c2cc(N)c(OCCO)cc2C1=O` [HOEtO-TC11, hydroxyethoxy-TC11] showed an IC50 [2] of 3.9 µM, an IC50 [3] of 7.7 µM and a Water solubility [1] of 0.027 g/100 ml. For the same compound, the “Water solubility, relative ratio” value [1] was 13.5 ×, the “Binding to CRBN (SPR sensorgram)” value (cereblon (CRBN) [4]) was “never bind to CRBN” and the IC50 [5] was 1.9 µM. The “KMS-11 tumor growth, level relative to the control” value (KMS11 xenograft; Day 9, HOEtO-TC11 71.1 mg/kg BW i.p.) was “about ⅓”, the “KMS-11 tumor growth, level relative to TC11” value (KMS11 xenograft; Day 9, HOEtO-TC11 71.1 mg/kg BW i.p. vs TC11 60 mg/kgBW) was “about a half” and the “KMS-11 tumor growth compared to control mice” value (KMS11 xenograft; Day 9, i.p., equimolar to TC11 60 mg/kgBW) was “tumor growth was suppressed”. The IC50 (MUM24 MM cell line) was 4 µM, the IC50 (high-risk MM cell lines [6]) was 1 to 8 µM and the IC50 [7] was 4.1 µM. It also gave an IC50 [8] of 2.4 µM.

For `O=C1CCC(N2C(=O)c3ccccc3C2=O)C(=O)N1` (stereo not drawn) [thalidomide], the “Binding of CRBN to drug immobilized on beads (pull-down, Western blot)” value (cereblon (CRBN) [9]) was “bound”.

For `Nc1cccc2c1CN(C1CCC(=O)NC1=O)C2=O` (stereo not drawn) [lenalidomide, reference compound], the “In vivo anti-tumor effect compared to HOEtO-TC11” value (KMS11 xenograft; lenalidomide 49.9 mg/kgBW i.p., KMS11 xenograft) was “clearly weaker than that of HOEtO-TC11”.

With `COCCOCCOCCOCCOCCC(=O)OCCOc1cc2c(cc1N)C(=O)N(c1c(C(C)C)cccc1C(C)C)C2=O` [PEG5(E)-TC11] the IC50 [10] was 6.5 µM, the Water solubility [1] was 0.002 g/100 ml and the “Water solubility, relative ratio” value [1] was 1 ×. The IC50 [11] was 3.6 µM, the IC50 [12] was 1.2 µM and the IC50 [13] was 1.4 µM. For the same compound, the IC50 (high-risk MM cell lines [14]) was 1.3 to 4.6 µM.
